These results are taken from patent US20170306385A1, “METHODS FOR DISCOVERING THERAPEUTICS THAT ALTER THE STABILITY OF TARGET PROTEINS” (Dana-Farber Cancer Institute, Inc., priority 2014, published 2017).

Format in all cases: cell-based
One test deals with fusion protein. Nature of the test: Western blot confirmation of fusion protein reduction by HSP90 inhibitors.
Test [1] relates to unfused luciferases (renilla and firefly). Description: Stability time course for 7 MYC-luciferase fusion cell lines, unfused (untagged) luciferase. The procedure: (§1) Seven cell lines were used to measure the half life of the luciferases after blocking all protein synthesis with cyclohexamide. The decay observed for both fused luciferases (MYC-firefly and MYC-nanoluc; FIG. 12B) were compared to the decay observed for the unfused luciferases (renilla and firefly; FIG. 12A) using both the MYC-firefly:renilla and MYC-nanoluc:firefly cell lines 293T, U2OS and the MYC-firefly:renilla cell lines A549, H1299 and LS174T. […] MYC nanoluc half life of approximately 2 hours is longer than MYC-firefly half-life of less than 1 hour and closer to the half-life of untagged firefly. The balanced half-life of MYC-nanoluc and untagged firefly should reduce the number of artefact hits.
(§2) Seven MYC-luciferase reporter cell lines were used to measure changes in MYC-luciferase expression after blocking the proteasome with MG132. The expression of the unfussed renilla and firefly were unchanged for about 6 hours but decreased after 18 hours to a variable extent among cell lines (FIG. 13B).
(§3) Seven MYC-luciferase reporter cell lines were used to measure changes in MYC-luciferase expression after inhibition of ubiquitin dependent proteolysis with the neddylation inhibitor MLN-4924 (FIG. 14A-B).

Test [2] has as its system MYC-luciferase fusion protein. Description: Stability time course for 7 MYC-luciferase fusion cell lines, fused (tagged) luciferase. To be noted: for increase in MYC-luciferase fusion protein: all 7 cell lines. The procedure: as §1, §2, §3

SMILES strings stand for the structures. Where a SMILES comes first, the peptide text is derived from it. The star is where a group is joined. Cbz = O=C(OCc1ccccc1)*

For the compound `CC1(C)CC(=O)c2c(C(F)(F)F)nn(-c3ccc(C(N)=O)c(N[C@H]4CC[C@H](OC(=O)CN)CC4)c3)c2C1` [PF-04929113], in the test on fusion protein, the “knockdown of protein levels by western blot” value is reported as “confirmed”.

Take `CC(C)C[C@@H](C=O)NC(=O)[C@H](CC(C)C)NC(=O)[C@H](CC(C)C)NC(=O)OCc1ccccc1` [MG132] (Cbz-Leu-Leu-Leu-aldehyde): the “expression of unfused renilla and firefly” value was “decreased” in test [1] (MG132, after 18 hours, variable extent among cell lines) and “unchanged” in test [1] (MG132, for about 6 hours). Moreover, in test [2] (MYC-nanoluc cell lines, MG132), the “increase in luciferase signals of MYC-nanoluc” value is “about 4 fold”. Further, in test [2] (proteasome blocked with MG132, different time course), the “increase in MYC-luciferase fusion protein” value is recorded as at least 50%.

With `COc1c(C)cnc(Cn2cnc3c(Cl)nc(N)nc32)c1C` [BIIB021], the “knockdown of protein levels by western blot” value in the test on fusion protein is on record as “confirmed”.

Regarding `NS(=O)(=O)OC[C@@H]1C[C@@H](n2ccc3c(N[C@H]4CCc5ccccc54)ncnc32)C[C@@H]1O` [MLN-4924], the “expression of unfused renilla and firefly” value in test [1] (MLN-4924, except for the 293T MYC-firefly:renilla cell line) is given as “minimally affected”. Moreover, in test [2] (MLN-4924, typically peaking after 6 hours of treatment), the “increase in MYC-luciferase fusion protein” value is at least 50%.
